Source: patent US9120849B2 (priority 2000, dated 2015)
Like-named read-outs stand apart in the source and are kept apart here.

Test system: bovine viral diarrhea virus (BVDV)
Conditions: 60 minutes, 20° C., Reed and Muench
Procedure: In this example bovine viral diarrhea virus (BVDV), biotype 1 (CPE), genotype 1 Host: Madin-Darby bovine kidney (MDBK) cells were inactivated according to the methods discussed in Example 2.
Bovine viral diarrhea virus (BVDV), biotype I (CPE), genotype 1 was used in these studies which infect Madin-Darby bovine kidney (MDBK) cells. […] These samples (0.5 mL) were loaded into pre-spun sephacryl columns. The columns were spun for 4 minutes at 1000 rpm. The samples were aseptically removed from the columns and ten-fold serial dilutions were then prepared in minimal essential medium (MEM) and adsorbed on the monolayer of host cells seeded in tissue culture plates for one hour at 37±2° C. and 5±1% C02. Post-adsorption, the monolayers were washed with EBSS and replaced with fresh MEM and incubated for 5-7 days at 37±2° C. and 5±1% C02. The presence of infectious viruses was determined as described below: post-incubation, the plates were washed with 3× with PBS and fixed with TC grade alcohol and stained with direct porcine polyclonal anti-BVDV conjugated antibody. The stained plate were scored using UV microscopy using a Nikon Diaphot microscope, and monolayers that contained one or more BVDV surface antigen positive […] were scored positive. Four wells per dilution were inoculated and results were recorded as the FFFUD50 calculated by Reed and Munch (1938).

Measured: FFFUD50/mL (log10)

paraformaldehyde
0 FFFUD50/mL (log10): 2.5% paraformaldehyde column 1 | 2.5% paraformaldehyde column 2 | 2.5% paraformaldehyde column 3 | 2.5% paraformaldehyde column 4
